Like-named read-outs stand apart in the source and are kept apart here.
What was measured:
Magnaporthe grisea = experiment: whole plant or invertebrate; format: in vivo; details: Pyricularia oryzae, in Oryza sativa
Alternaia brassicicola = experiment: Test Example C: Alternaria sooty spot on cabbage; format: in vivo; details: topical; for pest or weed control at 250 µg/mL: Brassica oleracea, Alternaria sooty spot on cabbage; for pest or weed control at 250 ppm: 250 ppm drug solution sprayed on test plant
From the text: Seeds of a test plant (cabbage variety: Shikidori) were planted and cultivated until the cotyledons extended.
<Control Value> Control value=100{1−(n/3)}

Puccinia recondita = experiment: Test Example E: Brown rust on wheat; format: in vivo; details: Puccinia recondita, topical; for pest or weed control at 250 µg/mL: Brown rust on wheat; for pest or weed control at 250 ppm: 250 ppm drug solution sprayed on test plant
Phytophthora infestans = experiment: whole plant or invertebrate; format: in vivo; details: Phytophthora infestans, in Solanum lycopersicum, topical
Botrytis cinerea = experiment: Test Example B: Gray mold on tomato; details: Botrytis cinerea, in Solanum lycopersicum, topical
Plasmopara viticola = experiment: Test Example G: Downy mildew on vine; details: Plasmopara viticola, topical
[1] = test system: Colletotrichum orbiculare; experiment: Test Example H: Anthracnose on cucumber; details: Colletotrichum orbiculare, in Cucumis sativus, topical
[2] = test system: Blumeria graminis f. sp. hordei; experiment: Test Example D: Powdery mildew on barley; details: Blumeria graminis, in Hordeum vulgare, topical
[3] = read-out: Test A control value class
[4] = class of control value, read-out: Test C control value class
[5] = class of control value, read-out: Test E control value class
[6] = read-out: Test F control value class
[7] = read-out: Test B control value class
[8] = read-out: Test G control value class
[9] = read-out: Test H control value class
[10] = read-out: Test D control value class
[11] = control value class, read-out: Test C control value
[12] = control value class, read-out: Test E control value
[13] = 168 h, read-out: Test G control value
[14] = 144 h, read-out: Test H control value

| SMILES | pest or weed control at 250 µg/mL (Magnaporthe grisea; [3]) [%] | pest or weed control at 250 µg/mL (Alternaia brassicicola; [4]) [%] | pest or weed control at 250 µg/mL (Puccinia recondita; [5]) [%] | pest or weed control at 250 µg/mL (Phytophthora infestans; [6]) [%] | pest or weed control at 250 µg/mL (Botrytis cinerea; [7]) [%] | pest or weed control at 250 ppm (Plasmopara viticola; [8]) [%] | pest or weed control at 250 ppm [1, 9] [%] | pest or weed control at 250 µg/mL [2, 10] [%] | pest or weed control at 250 ppm (Plasmopara viticola; [13]) [%] | pest or weed control at 250 ppm [1, 14] [%] | also measured |
| --- | --- | --- | --- | --- | --- | --- | --- | --- | --- | --- | --- |
| CCn1c(-c2c(F)cccc2F)c(C(C)(O)CC)cc(Cl)c1=O (stereo not shown) [Compound No. 27, 3-chloro-6-(2,6-difluorophenyl)-1-ethyl-5-(2-hydroxybutan-2-yl)pyridin-2(1H)-one] | > 50 | > 50 | > 50 | < 50 | > 50 | > 50 | > 50 | > 50 |  |  |  |
| CCn1c(-c2c(F)cccc2F)c(C(C)(CC)OC)cc(Cl)c1=O (stereo not shown) [Compound No. 29, 3-chloro-6-(2,6-difluorophenyl)-1-ethyl-5-(2-methoxybutan-2-yl)pyridin-2(1H)-one] | > 50 | > 50 | > 50 | < 50 | > 50 | > 50 | > 50 | > 50 |  |  |  |
| CCn1c(-c2c(F)cccc2F)c(C(C)(F)CC)cc(Cl)c1=O (stereo not shown) [Compound No. 30, 3-chloro-6-(2,6-difluorophenyl)-1-ethyl-5-(2-fluorobutan-2-yl)pyridin-2(1H)-one] | > 50 | > 50 | > 50 | < 50 | > 50 | > 50 | > 50 | > 50 |  |  |  |
| CCn1c(-c2c(F)cccc2F)c(C(O)C(C)C)cc(Cl)c1=O (stereo not shown) [Compound No. 53, 3-chloro-6-(2,6-difluorophenyl)-1-ethyl-5-(1-hydroxy-2-methylpropyl)pyridin-2(1H)-one] | > 50 | > 50 | > 50 | < 50 | > 50 | > 50 | > 50 | > 50 |  |  |  |
| CCn1c(-c2c(F)cc(F)cc2F)c(CN(C)OC)cc(Cl)c1=O [Compound No. 89, 3-chloro-1-ethyl-5-((methoxy(methyl)amino)methyl)-6-(2,4,6-trifluorophenyl)pyridin-2(1H)-one] | > 50 | > 50 | > 50 | < 50 | > 50 | < 50 | > 50 | > 50 |  |  |  |
| CCOc1cc(F)c(-c2c(CN(C)OC)cc(Cl)c(=O)n2CC)c(F)c1 [Compound No. 93, 3-chloro-6-(4-ethoxy-2,6-difluorophenyl)-1-ethyl-5-((methoxy(methyl)amino)methyl)pyridin-2(1H)-one] | > 50 | > 50 | > 50 | < 50 | > 50 | > 50 | > 50 | > 50 |  |  |  |
| CCn1c(-c2ccc(F)cc2Cl)c(CC(C)C)ccc1=O [Compound No. 98, 6-(2-chloro-4-fluorophenyl)-1-ethyl-5-isobutylpyridin-2(1H)-one] | > 50 | > 50 | > 50 | < 50 | > 50 | < 50 | < 50 | > 50 |  |  |  |
| CCn1c(-c2ccc(F)cc2Cl)c(CC(C)C)cc(Cl)c1=O [Compound No. 99, 3-chloro-6-(2-chloro-4-fluorophenyl)-1-ethyl-5-isobutylpyridin-2(1H)-one] | > 50 | > 50 | > 50 | > 50 | > 50 | > 50 | > 50 | > 50 |  |  |  |
| CCn1c(-c2c(F)cccc2F)c(C(C)(O)C(C)C)cc(Cl)c1=O (stereo not shown) [Compound No. 183, 3-chloro-6-(2,6-difluorophenyl)-1-ethyl-5-(2-hydroxy-3-methylbutan-2-yl)pyridin-2(1H)-one] | > 50 | > 50 | > 50 | > 50 | > 50 | > 50 | > 50 | > 50 |  |  |  |
| CCn1c(-c2c(F)cccc2F)c(C(C)(OC)C(C)C)cc(Cl)c1=O (stereo not shown) [Compound No. 187, 3-chloro-6-(2,6-difluorophenyl)-1-ethyl-5-(2-methoxy-3-methylbutan-2-yl)pyridin-2(1H)-one] |  |  |  |  |  |  |  |  | > 50 | > 50 | pest or weed control at 250 µg/mL (Magnaporthe grisea; read-out: Test A control value): > 50%; pest or weed control at 250 µg/mL (Alternaia brassicicola; [11]): > 50%; pest or weed control at 250 µg/mL (Puccinia recondita; [12]): > 50%; pest or weed control at 250 µg/mL (Phytophthora infestans; read-out: Test F control value): < 50%; pest or weed control at 250 µg/mL (Botrytis cinerea; read-out: Test B control value): > 50%; pest or weed control at 250 µg/mL ([2]; read-out: Test D control value): > 50% |
| CCn1c(-c2c(F)cc(F)cc2F)c(C=O)cc(Cl)c1=O [Compound No. 289, 5-chloro-1-ethyl-6-oxo-2-(2,4,6-trifluorophenyl)-1,6-dihydropyridine-3-carbaldehyde] |  |  |  |  |  |  |  |  | < 50 | > 50 | pest or weed control at 250 µg/mL (Magnaporthe grisea; read-out: Test A control value): < 50%; pest or weed control at 250 µg/mL (Alternaia brassicicola; [11]): > 50%; pest or weed control at 250 µg/mL (Puccinia recondita; [12]): > 50%; pest or weed control at 250 µg/mL (Phytophthora infestans; read-out: Test F control value): < 50%; pest or weed control at 250 µg/mL (Botrytis cinerea; read-out: Test B control value): > 50%; pest or weed control at 250 µg/mL ([2]; read-out: Test D control value): < 50% |
| CCn1c(-c2ccc(F)cc2Cl)c(C=C(C)C)cc(Cl)c1=O [Compound No. 300, 3-chloro-6-(2-chloro-4-fluorophenyl)-1-ethyl-5-(2-methyl-1-propenyl)pyridin-2(1H)-one] |  |  |  |  |  |  |  |  | < 50 | > 50 | pest or weed control at 250 µg/mL (Magnaporthe grisea; read-out: Test A control value): > 50%; pest or weed control at 250 µg/mL (Alternaia brassicicola; [11]): > 50%; pest or weed control at 250 µg/mL (Puccinia recondita; [12]): > 50%; pest or weed control at 250 µg/mL (Phytophthora infestans; read-out: Test F control value): < 50%; pest or weed control at 250 µg/mL (Botrytis cinerea; read-out: Test B control value): > 50%; pest or weed control at 250 µg/mL ([2]; read-out: Test D control value): > 50% |
| CCCc1cc(Br)c(=O)n(C)c1-c1ccc(F)cc1Cl [Compound No. 333, 3-bromo-6-(2-chloro-4-fluorophenyl)-1-methyl-5-propylpyridin-2(1H)-one] |  |  |  |  |  |  |  |  | < 50 | > 50 | pest or weed control at 250 µg/mL (Magnaporthe grisea; read-out: Test A control value): > 50%; pest or weed control at 250 µg/mL (Alternaia brassicicola; [11]): > 50%; pest or weed control at 250 µg/mL (Puccinia recondita; [12]): > 50%; pest or weed control at 250 µg/mL (Phytophthora infestans; read-out: Test F control value): < 50%; pest or weed control at 250 µg/mL (Botrytis cinerea; read-out: Test B control value): > 50%; pest or weed control at 250 µg/mL ([2]; read-out: Test D control value): < 50% |
| CCCc1cc(C)c(=O)n(C)c1-c1ccc(F)cc1Cl [Compound No. 339, 6-(2-chloro-4-fluorophenyl)-1,3-dimethyl-5-propylpyridin-2(1H)-one] |  |  |  |  |  |  |  |  | > 50 | > 50 | pest or weed control at 250 µg/mL (Magnaporthe grisea; read-out: Test A control value): > 50%; pest or weed control at 250 µg/mL (Alternaia brassicicola; [11]): < 50%; pest or weed control at 250 µg/mL (Puccinia recondita; [12]): > 50%; pest or weed control at 250 µg/mL (Phytophthora infestans; read-out: Test F control value): < 50%; pest or weed control at 250 µg/mL (Botrytis cinerea; read-out: Test B control value): > 50%; pest or weed control at 250 µg/mL ([2]; read-out: Test D control value): > 50% |
| CCn1c(-c2c(F)cc(F)cc2F)c(C(O)C(F)(F)F)cc(Cl)c1=O (stereo not shown) [Compound No. 515, 3-chloro-1-ethyl-5-(2,2,2-trifluoro-1-hydroxyethyl)-6-(2,4,6-trifluorophenyl)pyridin-2(1H)-one] |  |  |  |  |  |  |  |  | > 50 | > 50 | pest or weed control at 250 ppm (Magnaporthe grisea; read-out: Test A control value): > 50%; pest or weed control at 250 ppm (Alternaia brassicicola): < 50%; pest or weed control at 250 ppm (Puccinia recondita): > 50%; pest or weed control at 250 ppm (Phytophthora infestans; read-out: Test F control value): < 50%; pest or weed control at 250 ppm (Botrytis cinerea; read-out: Test B control value): > 50%; pest or weed control at 250 ppm ([2]; read-out: Test D control value): < 50% |
| CCn1c(-c2c(F)cc(F)cc2F)c(C(OC)C(F)(F)F)cc(Cl)c1=O (stereo not shown) [Compound No. 516, 3-Chloro-1-ethyl-5-(2,2,2-trifluoro-1-methoxyethyl)-6-(2,4,6-trifluorophenyl)pyridin-2(1H)-one] |  |  |  |  |  |  |  |  | > 50 | > 50 | pest or weed control at 250 ppm (Magnaporthe grisea; read-out: Test A control value): > 50%; pest or weed control at 250 ppm (Alternaia brassicicola): > 50%; pest or weed control at 250 ppm (Puccinia recondita): > 50%; pest or weed control at 250 ppm (Phytophthora infestans; read-out: Test F control value): < 50%; pest or weed control at 250 ppm (Botrytis cinerea; read-out: Test B control value): > 50%; pest or weed control at 250 ppm ([2]; read-out: Test D control value): > 50% |
| CCn1c(-c2c(F)cc(OC)cc2F)c(C(OC)C(F)(F)F)cc(Cl)c1=O (stereo not shown) [Compound No. 518, 3-chloro-6-(2,6-difluoro-4-methoxyphenyl)-1-ethyl-5-(2,2,2-trifluoro-1-methoxyethyl)pyridin-2(1H)-one] |  |  |  |  |  |  |  |  | < 50 | > 50 | pest or weed control at 250 ppm (Magnaporthe grisea; read-out: Test A control value): > 50%; pest or weed control at 250 ppm (Alternaia brassicicola): > 50%; pest or weed control at 250 ppm (Puccinia recondita): > 50%; pest or weed control at 250 ppm (Phytophthora infestans; read-out: Test F control value): < 50%; pest or weed control at 250 ppm (Botrytis cinerea; read-out: Test B control value): > 50%; pest or weed control at 250 ppm ([2]; read-out: Test D control value): > 50% |

Source: US11147272B2, “Pyridone compounds and agricultural and horticultural fungicides comprising the same as active ingredients” (MITSUI CHEMICALS AGRO, INC., priority 2017, dated 2021)
